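Briefly, cells in 96-well plates were exposed to five compound concentrations for 48 h, and endpoints were estimated by linear interpolation. GI50 = concentration required for 50% inhibition of growth.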 Activity calls are given as the source filed them. Cut-off read from the data, not from the text of the source: active = GI50 up to about 1.1 µM and inactive = higher.
Columns and labels:
Test in all cases: DTP human tumour cell line panel, 48 h
786-0 = test system: 786-0
ACHN = test system: ACHN
CAKI-1 = test system: CAKI-1
COLO 205 = test system: COLO 205
LOX IMVI = test system: LOX IMVI
M14 = test system: M14
MDA-MB-435 = test system: MDA-MB-435
NCI-H23 = test system: NCI-H23
NCI-H522 = test system: NCI-H522
NCI/ADR-RES = test system: NCI/ADR-RES
PC-3 = test system: PC-3
RPMI-8226 = test system: RPMI-8226
RXF 393 = test system: RXF 393
SK-MEL-2 = test system: SK-MEL-2
SN12C = test system: SN12C
T47D = test system: T47D
TK-10 = test system: TK-10
UO-31 = test system: UO-31
SF-539 = test system: SF-539

SMILES	GI50 (786-0)	GI50 (ACHN)	GI50 (CAKI-1)	GI50 (COLO 205)	GI50 (LOX IMVI)	GI50 (M14)	GI50 (MDA-MB-435)	GI50 (NCI-H23)	GI50 (NCI-H522)	GI50 (NCI/ADR-RES)	GI50 (PC-3)	GI50 (RPMI-8226)	GI50 (RXF 393)	GI50 (SK-MEL-2)	GI50 (SN12C)	GI50 (T47D)	GI50 (TK-10)	GI50 (UO-31)	GI50 (SF-539)
FC1CCN(C2(c3cccs3)CCCCC2)CC1	> 100 µM (inactive)	> 100 µM (inactive)	> 100 µM (inactive)	> 100 µM (inactive)	96.6 µM (inactive)	77.1 µM (inactive)	> 100 µM (inactive)	> 100 µM (inactive)	> 100 µM (inactive)	> 100 µM (inactive)	> 100 µM (inactive)	56.5 µM (inactive)	> 100 µM (inactive)	> 100 µM (inactive)	> 100 µM (inactive)	> 100 µM (inactive)	> 100 µM (inactive)	> 100 µM (inactive)	
Cc1ccc2c(=O)c(C(=O)Nn3c(C)csc3=S)c[nH]c2n1	> 100 µM (inactive)	> 100 µM (inactive)	69 µM (inactive)	> 100 µM (inactive)	> 100 µM (inactive)	> 100 µM (inactive)	> 100 µM (inactive)	> 100 µM (inactive)	> 100 µM (inactive)	> 100 µM (inactive)	> 100 µM (inactive)	> 100 µM (inactive)	> 100 µM (inactive)	> 100 µM (inactive)	> 100 µM (inactive)	> 100 µM (inactive)	> 100 µM (inactive)	> 100 µM (inactive)	
Nc1nc(Cl)c(N)c(NCC2(CO)CCC(OCc3ccccc3)C2)n1 (centres undefined)	> 100 µM (inactive)	> 100 µM (inactive)	> 100 µM (inactive)	> 100 µM (inactive)	18.5 µM (inactive)		95.9 µM (inactive)	> 100 µM (inactive)	> 100 µM (inactive)	13.5 µM (inactive)	> 100 µM (inactive)		8.85 µM (inactive)	84.1 µM (inactive)	> 100 µM (inactive)	0.372 µM (active)	> 100 µM (inactive)	> 100 µM (inactive)	> 100 µM (inactive)
COc1cc(CNNC(N)=S)cc(OC)c1OC	> 100 µM (inactive)	> 100 µM (inactive)	6.27 µM (inactive)	> 100 µM (inactive)	> 100 µM (inactive)	> 100 µM (inactive)	> 100 µM (inactive)	> 100 µM (inactive)	> 100 µM (inactive)	> 100 µM (inactive)	> 100 µM (inactive)	> 100 µM (inactive)	> 100 µM (inactive)		> 100 µM (inactive)	7.03 µM (inactive)	> 100 µM (inactive)	> 100 µM (inactive)	> 100 µM (inactive)
CC(C)C1=CC(=O)[C@@](C)(C2[C@H](O)C[C@@]3(C)[C@@H]4CC=C5[C@@H](CC[C@@H](OC6OCC(O)C(O)C6OC6OC(C)C(O)C(O)C6O)C5(C)C)[C@]4(C)C(=O)C[C@]23C)O1 (some centres undefined)	> 100 µM (inactive)	> 100 µM (inactive)	> 100 µM (inactive)	> 100 µM (inactive)		> 100 µM (inactive)	> 100 µM (inactive)	> 100 µM (inactive)	> 100 µM (inactive)	> 100 µM (inactive)	> 100 µM (inactive)	> 100 µM (inactive)	> 100 µM (inactive)		> 100 µM (inactive)	> 100 µM (inactive)		> 100 µM (inactive)	
NC1CC(=O)c2cscc21 (centres undefined)	15.1 µM (inactive)		15.9 µM (inactive)	20.6 µM (inactive)	31.8 µM (inactive)	31.1 µM (inactive)	24.1 µM (inactive)	> 100 µM (inactive)		> 100 µM (inactive)	52.7 µM (inactive)	4.46 µM (inactive)	> 100 µM (inactive)	> 100 µM (inactive)	27.6 µM (inactive)	19.6 µM (inactive)	19.1 µM (inactive)	10.3 µM (inactive)	37 µM (inactive)
CN(CCCNC(=O)c1n[nH]c2c1ccc1ccccc12)CCCNC(=O)c1n[nH]c2c1ccc1ccccc12	10.9 µM (inactive)	17.6 µM (inactive)	16.8 µM (inactive)	2.69 µM (inactive)	12.5 µM (inactive)	4.3 µM (inactive)	2.62 µM (inactive)	17.9 µM (inactive)	16.8 µM (inactive)	> 100 µM (inactive)	14.7 µM (inactive)		14.4 µM (inactive)	10.6 µM (inactive)	16.3 µM (inactive)	16 µM (inactive)	17.9 µM (inactive)	14.6 µM (inactive)	11 µM (inactive)
Cc1[nH]c2c(c1Cc1ccccc1)C1=NC=C(O)NN1C=N2	> 100 µM (inactive)	44.3 µM (inactive)	> 100 µM (inactive)	22 µM (inactive)		> 100 µM (inactive)	> 100 µM (inactive)	53.7 µM (inactive)	43.7 µM (inactive)	> 100 µM (inactive)	82.2 µM (inactive)	51.5 µM (inactive)	16.6 µM (inactive)	> 100 µM (inactive)	> 100 µM (inactive)	14.4 µM (inactive)	74.1 µM (inactive)	> 100 µM (inactive)	86.9 µM (inactive)
C[C@@H](CO)C1=C(O)C(=O)c2c(ccc3c2CCCC3(C)C)C1=O	55.3 µM (inactive)	18.5 µM (inactive)	44.9 µM (inactive)	38.3 µM (inactive)	59.4 µM (inactive)	17.7 µM (inactive)	26.8 µM (inactive)	22.1 µM (inactive)	15.5 µM (inactive)	38.8 µM (inactive)	31.8 µM (inactive)	23 µM (inactive)	43.8 µM (inactive)	23.2 µM (inactive)	54.8 µM (inactive)	50.6 µM (inactive)	45.4 µM (inactive)	33.3 µM (inactive)	
O=C1/C(=N/N=C(c2ccccc2)c2ccccc2)c2ccccc2-c2ccccc21	> 100 µM (inactive)	65.9 µM (inactive)	37.6 µM (inactive)	> 100 µM (inactive)	56.4 µM (inactive)	> 100 µM (inactive)	> 100 µM (inactive)	74 µM (inactive)	54.8 µM (inactive)	54 µM (inactive)	64 µM (inactive)		> 100 µM (inactive)	> 100 µM (inactive)	71.1 µM (inactive)	32.8 µM (inactive)	75.5 µM (inactive)	45.5 µM (inactive)	> 100 µM (inactive)
O=C(O)CCCc1ccc2ccc3ccccc3c2c1	> 100 µM (inactive)	46.2 µM (inactive)	> 100 µM (inactive)	40.8 µM (inactive)	96.4 µM (inactive)	> 100 µM (inactive)	> 100 µM (inactive)	> 100 µM (inactive)	39.6 µM (inactive)	84.3 µM (inactive)	34.8 µM (inactive)	38.8 µM (inactive)	15.3 µM (inactive)	26.7 µM (inactive)	> 100 µM (inactive)	52.8 µM (inactive)	57.4 µM (inactive)	88.1 µM (inactive)	
C/N=C(\Nc1cccc(C(F)(F)F)c1)SCc1ccc(N=C=S)cc1	16.4 µM (inactive)	15.2 µM (inactive)	16.5 µM (inactive)	16.6 µM (inactive)	4.66 µM (inactive)		13.8 µM (inactive)	16.3 µM (inactive)	10.4 µM (inactive)	22.1 µM (inactive)	15.9 µM (inactive)	5.92 µM (inactive)	13.4 µM (inactive)	12.3 µM (inactive)	13.8 µM (inactive)	13.8 µM (inactive)	11.4 µM (inactive)	15.1 µM (inactive)	17.5 µM (inactive)
O=c1cc(-c2ccccc2)[nH]c2cccc(S)c12	0.301 µM (active)	0.804 µM (active)		0.249 µM (active)		0.857 µM (active)	0.0299 µM (active)	0.445 µM (active)	0.0782 µM (active)	0.0796 µM (active)	0.123 µM (active)	0.424 µM (active)	0.164 µM (active)		0.462 µM (active)	8.32 µM (inactive)			0.2 µM (active)
C#CCOC(=O)C(=[N+]=[N-])C(=O)CC(C)C	> 10 µM (inactive)	> 10 µM (inactive)	> 10 µM (inactive)	> 10 µM (inactive)	> 10 µM (inactive)	> 10 µM (inactive)	> 10 µM (inactive)	> 10 µM (inactive)		> 10 µM (inactive)	> 10 µM (inactive)	> 10 µM (inactive)	> 10 µM (inactive)	> 10 µM (inactive)	> 10 µM (inactive)	> 10 µM (inactive)	> 10 µM (inactive)	> 10 µM (inactive)	> 10 µM (inactive)
COc1c(-c2nc3ccc(N4CCN(C)CC4)nc3[nH]2)cc(OC)c2c1nc(CCl)n2C	17.9 µM (inactive)	13.7 µM (inactive)	16.6 µM (inactive)	14.4 µM (inactive)	10.8 µM (inactive)	16.9 µM (inactive)	16.1 µM (inactive)	20.1 µM (inactive)	10.5 µM (inactive)	56.9 µM (inactive)	11.2 µM (inactive)	10.5 µM (inactive)	16 µM (inactive)	11.6 µM (inactive)	20.9 µM (inactive)	16 µM (inactive)		16.5 µM (inactive)	4.99 µM (inactive)
O=C(O)C1CC2C3CCC2C1C3=O (centres undefined)	> 100 µM (inactive)	> 100 µM (inactive)	> 100 µM (inactive)	> 100 µM (inactive)	> 100 µM (inactive)	> 100 µM (inactive)	> 100 µM (inactive)	> 100 µM (inactive)	> 100 µM (inactive)	> 100 µM (inactive)	> 100 µM (inactive)		> 100 µM (inactive)	> 100 µM (inactive)	> 100 µM (inactive)	> 100 µM (inactive)	> 100 µM (inactive)	> 100 µM (inactive)	> 100 µM (inactive)
